Common to all, as to assay type: cell-based, human
The subject of assay [1] is T4302 CD133+ cells. In words: Neurosphere formation (clonogenic survival). The settings on record: following 3-Gy X-ray radiation; 2 μM DAPT or 0.5 μM L685,458, 4 h pre-treatment. As to the method: (A) T4302 CD133+ GBM stem cells were enriched from freshly collected subcutaneous xenograft tumors, cultured in stem cell media. Cells were left unirradiated or irradiated at 3 Gy. The relative mRNA levels of Hes2 were determined by quantitative real-time PCR at the time points as indicated. (B) T4302 CD133+ cells were pre-treated with vehicle (DMSO), 2 μM DAPT or 0.5 μM L685,458 for 4 hours and irradiated as indicated. Cells were then plated to form neurospheres. Fourteen days after plating, neurospheres containing more than 50 cells were scored. […] Relative caspase 3/7 activities were determined by normalizing caspase activities to the corresponding cell numbers. […] Relative caspase 3/7 activities and clonogenic survival were determined as described above. […] Clonogenic survival was determined as described above. *: p<0.05 by Student's t-test; #: p<0.01 by one-way ANOVA.
(A, B) T4302 CD133+ cells were treated with 100 nM RO4929097 (GSI) and/or 100 nM tipifarnib (FTI) for 4 hours prior to 3 Gy radiation. (A) Cell growth on day 5 and (B) caspase 3/7 activation on day 3 were determined as described in FIG. 4. #: p<0.001 by one-way ANOVA, combo vs. single agents. […] Cell viability was determined at 5 days after treatment in comparison to vehicle-treated groups. […]

Assay [2] concerns T4302 CD133+ cells. The assay is described as follows: Caspase 3/7 activation (apoptosis). As to conditions: for apoptotic cell death: following 3-Gy X-ray radiation, 2 μM DAPT or 0.5 μM L685,458. How it is done:
(A) T4302 CD133+ GBM stem cells were enriched from freshly collected subcutaneous xenograft tumors, cultured in stem cell media. Cells were left unirradiated or irradiated at 3 Gy. The relative mRNA levels of Hes2 were determined by quantitative real-time PCR at the time points as indicated. (B) T4302 CD133+ cells were pre-treated with vehicle (DMSO), 2 μM DAPT or 0.5 μM L685,458 for 4 hours and irradiated as indicated. Cells were then plated to form neurospheres. Fourteen days after plating, neurospheres containing more than 50 cells were scored. To determine the surviving fractions, the number of neurosphere at each radiation dose was normalized to that of the corresponding sham-irradiated group. (C) T4302 CD133+ cells were treated with GSIs±radiation as indicated. Relative caspase 3/7 activities were determined by normalizing caspase activities to the corresponding cell numbers. (D), (E) T4302 CD133+ cells were infected with lentivirus directing expression of non-targeting shRNA or shRNAs specific to Notch1 or Notch2 (KD-Notch1 or KD-Notch2), and selected with puromycin. Relative caspase 3/7 activities and clonogenic survival were determined as described above. (F) T4302 CD133+ cells were infected with control lentivirus or lentivirus directing expression of NICD2. Clonogenic survival was determined as described above. *: p<0.05 by Student's t-test; #: p<0.01 by one-way ANOVA.
(A, B) T4302 CD133+ cells were treated with 100 nM RO4929097 (GSI) and/or 100 nM tipifarnib (FTI) for 4 hours prior to 3 Gy radiation. (A) Cell growth on day 5 and (B) caspase 3/7 activation on day 3 were determined as described in FIG. 4. #: p<0.001 by one-way ANOVA, combo vs. single agents. (C) The effects of GSIs and FTI against growth of T4302 CD133− cells were determined as described in panel A. (D, E) T4302 CD133+ cells were treated with GSI, FTI, or a 1:1 mixture at different concentrations (ranging from 3000 nM to ˜0.5 nM, 1:3 dilution)±3 Gy radiation. Cell viability was determined at 5 days after treatment in comparison to vehicle-treated groups. […] (F) T4302 CD 133+ cells were treated by GSI±FTI with a 2-fold dilution. Neurospheres were countered on day 10, and normalized to the vehicle-treated group.

Assay [3] concerns CD133+ GBM stem cells. In words: Growth inhibition within 5 days, panel of glioblastoma xenograft samples. As to conditions: 5-day period; in combination with 3 Gy radiation. How it is done:
CD133+ cells were derived from multiple glioblastoma xenograft samples as indicated. The growth inhibitory effects by GSI and/or FTIs were determined as described in FIG. 5.
Therefore, effective killing of GBM stem cells may delay or even prevent tumor recurrence. […] In combination with radiation, GSIs or FTIs alone reduced cell numbers by ˜75%.

In assay [4] the test system is GBM 44. The assay is described as follows: Growth inhibition at day 5, spheroid GBM culture. As to the method: (A) Known genetic features of selected GBM samples. WT: wild type; Amp: amplification; vIII: EGFRvIII; ND: not determined. (B) Spheroid GBM cultures were derived from freshly collected subcutaneous tumors and cultured for 2 weeks in stem cell media to enrich stem cell-like cancer cells. SF7225 was maintained as a primary spheroid culture. Growth inhibition at day 5 after treatment was determined as described in FIG. 5. *: p<0.01 by Student's t-test and growth inhibition ≧30% vs. the corresponding vehicle-treated groups. #: p<0.01 and >30% growth inhibition vs. the radiation only groups.
Work is now extended to a set of subcutaneous GBM xenografts (GBM) established by Dr. Jann Sarkaria and colleagues at Mayo Clinic. These samples are known to have mutational status of EGFR, p53 and PTEN and different radiosensitivity (FIG. 8A) (69-71). Because the cancer stem cell identity of CD133+ of the Mayo Clinic samples has not been validated by functional assays, the present inventor used the neurosphere culture that is widely utilized as a surrogate of GSCs for its ability to enrich GSC-like population (72, 73). Tumor response to GSI, FTI and/or radiation was determined as growth inhibition on day 5 after treatment, with a greater than 30% cell number reduction was defined as positive response mimicking the RECIST criteria (FIG. 8B). […] Therefore, the present inventor will continuously expand the GBM panel and determine the genomic features of all samples with focus on prevalent GBM-associated aberrations. On the basis of this molecularly characterized tumor panel, the present inventor will start to explore the potential biomarkers that may predict tumor response to the combination therapy of radiation, GSI and FTI by experiments described in herein.

Consider 3 molecules from US8853274B1, “Compositions and methods for targeting glioblastomas cells” (Vanderbilt University, priority 2011, dated 2014).

Structures are written as SMILES.

`CC(C)C[C@H](NC(=O)[C@H](Cc1ccccc1)C[C@@H](O)[C@H](Cc1ccccc1)NC(=O)OC(C)(C)C)C(=O)N[C@@H](Cc1ccccc1)C(N)=O` [L-685,458]: the clonogenic survival entry in assay [1] is recorded as “reduced clonogenic survival”. Also, in assay [2], the apoptotic cell death result was “increased apoptotic cell death”.

In the case of `Cn1cncc1[C@@](N)(c1ccc(Cl)cc1)c1ccc2c(c1)c(-c1cccc(Cl)c1)cc(=O)n2C` [tipifarnib], the “growth inhibition / reduction of cell numbers” value in assay [3] was ~75%. In assay [2] (following 3-Gy radiation, 100 nM, day 3), the “increase of caspase 3/7 activity compared with the sham-treated group” value was “approximately 2 fold”. For the same molecule, the “growth inhibition on day 5” value in assay [4] (0 Gy) is reported as 23.4±6.4%; in assay [4] (3 Gy), 42±7.2%.

On to `C[C@H](NC(=O)Cc1cc(F)cc(F)c1)C(=O)N[C@H](C(=O)OC(C)(C)C)c1ccccc1` [DAPT], for which the clonogenic survival entry in assay [1] is given as “reduced clonogenic survival”. In addition, in assay [2], the apoptotic cell death entry was “increased apoptotic cell death”.
